The values that follow come from PubChem BioAssay AID602331 (Johns Hopkins Ion Channel Center, 2012).

The experiment deals with Transient receptor potential cation channel subfamily V member 1 (Homo sapiens) (UniProt Q8NER1). Briefly: allosteric agonists potentiating TRPV1 currents, confirmation, QPatch automated patch clamp, HEK293 cells (AID 602331). To be noted: HEK293-TRPV1 QPatch current potentiation, +100 mV, capsaicin; at 10 µM; stronger effect = higher value.

Active and inactive are the calls of the source.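 How the source made its calls: active means compound boosting capsaicin-evoked TRPV1 current more than 1.5 times over the capsaicin response; inactive means the rest.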

Transient receptor potential cation channel subfamily V member 1 (Homo sapiens), sequence (Q8NER1 whole entry, looked up): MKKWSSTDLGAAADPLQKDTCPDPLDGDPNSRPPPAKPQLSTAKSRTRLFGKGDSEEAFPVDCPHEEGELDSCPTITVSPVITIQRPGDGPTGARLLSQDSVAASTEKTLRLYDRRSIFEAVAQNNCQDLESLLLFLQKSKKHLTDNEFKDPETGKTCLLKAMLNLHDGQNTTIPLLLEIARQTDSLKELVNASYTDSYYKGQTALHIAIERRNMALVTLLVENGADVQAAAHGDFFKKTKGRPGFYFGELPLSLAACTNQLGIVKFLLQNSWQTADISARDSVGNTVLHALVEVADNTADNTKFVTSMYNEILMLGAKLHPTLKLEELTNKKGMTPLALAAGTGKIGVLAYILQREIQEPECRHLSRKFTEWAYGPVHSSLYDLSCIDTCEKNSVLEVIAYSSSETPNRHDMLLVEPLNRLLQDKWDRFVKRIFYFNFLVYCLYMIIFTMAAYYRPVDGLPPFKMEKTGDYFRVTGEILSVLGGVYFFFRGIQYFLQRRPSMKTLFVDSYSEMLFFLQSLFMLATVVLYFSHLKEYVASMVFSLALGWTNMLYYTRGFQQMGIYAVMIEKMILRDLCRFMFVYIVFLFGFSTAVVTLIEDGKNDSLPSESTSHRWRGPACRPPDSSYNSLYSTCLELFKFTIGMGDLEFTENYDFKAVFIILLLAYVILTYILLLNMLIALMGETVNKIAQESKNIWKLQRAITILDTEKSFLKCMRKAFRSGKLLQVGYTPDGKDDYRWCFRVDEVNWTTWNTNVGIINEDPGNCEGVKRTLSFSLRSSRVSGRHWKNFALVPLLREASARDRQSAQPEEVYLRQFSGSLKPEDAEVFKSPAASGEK

Consider `O=c1c(/C=N/OCc2ccc(Cl)cc2Cl)c[nH]n1-c1cccc(Cl)n1`, for which the fold potentiation was 0.906 (inactive). As to `CC1=C(C)/C(=N\OS(=O)(=O)c2ccc(C)cc2)C=CC1=O`, the fold potentiation was 1.63. Then `CC(=O)Nc1cccc(C(=O)OCC(=O)NCc2cc(C)c(O)c(C)c2)c1`, with 0.956 (inactive).

For the compound `Cc1csc2c(=O)sc(NC(=O)c3ccc(F)cc3Cl)nc12`, the fold potentiation was 1.08 (inactive).

Take `O=C(COC(=O)c1ccc2c(c1)C(=O)N(Cc1ccncc1)C2=O)Nc1ccccc1[N+](=O)[O-]`: the fold potentiation was 3.23. Then `CC(C)C(=O)Nc1ccc(C(=O)CN2C(=O)NC3(CCOc4ccccc43)C2=O)cc1` (configuration not stated), with 0.776 (inactive); and `O=C(CNc1cccc(S(=O)(=O)N2CCOCC2)c1)Nc1cccc(Br)c1`, with 0.827 (inactive).
